Reference: the NIST ThermoML archive (doi:10.1021/je060271a)
“And” between values parts separate entries of the source, which are not always exact repeats. Equal entries are not always repeated.

Details: 283.15 K, Liquid, Vibrating tube method

CCCCCC(=O)OCC(COC(=O)CCCCC)(COC(=O)CCCCC)COC(=O)CCCCC [pentaerythritol tetrahexanoate]
Details	mass density
10919 kPa	1010.4 kg/m3
10934 kPa	1010.4 kg/m3
10949 kPa	1010.4 kg/m3
10966 kPa	1010.5 kg/m3
10983 kPa	1010.4 kg/m3
10998 kPa	1010.5 kg/m3
11013 kPa	1010.5 kg/m3
11028 kPa	1010.6 kg/m3
11046 kPa	1010.5 kg/m3
11060 kPa	1010.6 kg/m3
11075 kPa	1010.4 kg/m3
11093 kPa	1010.5 kg/m3
11108 kPa	1010.6 kg/m3
11126 kPa	1010.6 kg/m3
11141 kPa	1010.5 kg/m3
11157 kPa	1010.6 kg/m3
11173 kPa	1010.6 kg/m3
11191 kPa	1010.5 kg/m3
11206 kPa	1010.6 kg/m3
11221 kPa	1010.5 kg/m3
11237 kPa	1010.6 kg/m3
11256 kPa	1010.5 kg/m3
11271 kPa	1010.6 kg/m3
11289 kPa	1010.8 kg/m3
11304 kPa	1010.6 kg/m3
11320 kPa	1010.7 kg/m3
11339 kPa	1010.7 kg/m3
11355 kPa	1010.7 kg/m3
11370 kPa	1010.6 kg/m3
11387 kPa	1010.7 kg/m3
11406 kPa	1010.7 kg/m3
11422 kPa	1010.7 kg/m3
11438 kPa	1010.7 kg/m3
11457 kPa	1010.8 kg/m3
11473 kPa	1010.8 kg/m3
11492 kPa	1010.7 kg/m3
11508 kPa	1010.8 kg/m3
11524 kPa	1010.8 kg/m3
11541 kPa	1010.7 kg/m3
11560 kPa	1010.8 kg/m3
11577 kPa	1010.7 kg/m3
11593 kPa	1010.8 kg/m3
11613 kPa	1010.9 kg/m3
11630 kPa	1010.7 kg/m3
11649 kPa	1010.9 kg/m3
11682 kPa	1010.8 kg/m3
11753 kPa	1010.9 kg/m3
11773 kPa	1011 kg/m3
11790 kPa	1010.9 kg/m3
11807 kPa	1010.8 kg/m3
11828 kPa	1011 kg/m3
11844 kPa	1010.9 kg/m3
11862 kPa	1010.9 kg/m3
11899 kPa	1011 kg/m3
11916 kPa	1011 kg/m3
11936 kPa	1011.1 kg/m3
11954 kPa	1010.9 kg/m3
11971 kPa	1011 kg/m3
11988 kPa	1011.1 kg/m3
12009 kPa	1011 kg/m3
12027 kPa	1011 kg/m3
12044 kPa	1011 kg/m3
12062 kPa	1011.2 kg/m3
12082 kPa	1011.1 kg/m3
12099 kPa	1011.2 kg/m3
12119 kPa	1011.2 kg/m3
12137 kPa	1011.1 kg/m3
12154 kPa	1011.1 kg/m3
12171 kPa	1011 kg/m3
12192 kPa	1011.2 kg/m3
12209 kPa	1011.1 kg/m3
12231 kPa	1011.3 kg/m3
12249 kPa	1011.2 kg/m3
12267 kPa	1011.2 kg/m3
12290 kPa	1011.1 kg/m3
12309 kPa	1011.2 kg/m3
12310 kPa	1011.2 kg/m3
12311 kPa	1011.2 kg/m3
12312 kPa	1011.2 kg/m3 and 1011.4 kg/m3
12313 kPa	1011.1 kg/m3
12314 kPa	1011.2 kg/m3 and 1011.3 kg/m3
12315 kPa	1011.3 kg/m3
12316 kPa	1011.2 kg/m3
12317 kPa	1011.2 kg/m3
12318 kPa	1011.3 kg/m3 and 1011.2 kg/m3
12319 kPa	1011.4 kg/m3 and 1011.1 kg/m3
12320 kPa	1011.3 kg/m3 and 1011.2 kg/m3
12321 kPa	1011.2 kg/m3
12322 kPa	1011.3 kg/m3 and 1011.2 kg/m3
12323 kPa	1011.3 kg/m3 and 1011.2 kg/m3
12324 kPa	1011.3 kg/m3
12325 kPa	1011.2 kg/m3 and 1011.3 kg/m3
12326 kPa	1011.2 kg/m3 and 1011 kg/m3
12327 kPa	1011.3 kg/m3
12328 kPa	1011.2 kg/m3
12332 kPa	1011.3 kg/m3
12334 kPa	1011.3 kg/m3
12336 kPa	1011.3 kg/m3
12339 kPa	1011.4 kg/m3
12343 kPa	1011.3 kg/m3 and 1011.2 kg/m3
12348 kPa	1011.2 kg/m3
12351 kPa	1011.1 kg/m3
12354 kPa	1011.4 kg/m3
12356 kPa	1011.2 kg/m3
12359 kPa	1011.2 kg/m3
12362 kPa	1011.3 kg/m3
12363 kPa	1011.2 kg/m3
12364 kPa	1011.3 kg/m3
12366 kPa	1011.3 kg/m3
12380 kPa	1011.2 kg/m3
12399 kPa	1011.3 kg/m3
12414 kPa	1011.3 kg/m3
12431 kPa	1011.3 kg/m3
12446 kPa	1011.2 kg/m3
12461 kPa	1011.2 kg/m3
12476 kPa	1011.4 kg/m3
12494 kPa	1011.4 kg/m3
12509 kPa	1011.3 kg/m3
12527 kPa	1011.3 kg/m3
12543 kPa	1011.3 kg/m3
12558 kPa	1011.3 kg/m3
12577 kPa	1011.3 kg/m3
12592 kPa	1011.4 kg/m3
12607 kPa	1011.5 kg/m3
12622 kPa	1011.2 kg/m3
12640 kPa	1011.4 kg/m3
12656 kPa	1011.5 kg/m3
12674 kPa	1011.4 kg/m3
12689 kPa	1011.3 kg/m3
12705 kPa	1011.5 kg/m3
12723 kPa	1011.3 kg/m3
12738 kPa	1011.5 kg/m3
12754 kPa	1011.5 kg/m3
12768 kPa	1011.5 kg/m3
12786 kPa	1011.4 kg/m3
12800 kPa	1011.5 kg/m3
12814 kPa	1011.5 kg/m3
12831 kPa	1011.5 kg/m3
12845 kPa	1011.5 kg/m3
12862 kPa	1011.5 kg/m3
12875 kPa	1011.5 kg/m3
12889 kPa	1011.5 kg/m3
12903 kPa	1011.5 kg/m3
12919 kPa	1011.4 kg/m3
12933 kPa	1011.6 kg/m3
